Source: PubChem BioAssay AID2060616 (Molecular Pharmacology Branch, DTP, NCI, 2025)

System: 377384-186-R-J1-PDC complex spheroid viability
Experiment: Anticancer human tumor 377384-186-R-J1-PDC patient-derived pancreatic carcinoma cell line growth inhibition [CLK]
Conditions: for IC50: curve of first compound; for viability, T/C: stronger effect = lower value
Outline: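 Patient-derived tumor cells grown as complex spheroids with HUVEC endothelial cells and mesenchymal stem cells, treated with drug combinations. Concentrations descend in half-log steps from near clinical Cmax, or from 10 microM if Cmax unknown.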

[1] = second compound 0.0316 µM, first compound 0.0316 µM
[2] = second compound 0.0316 µM, first compound 0.1 µM
[3] = second compound 0.0316 µM, first compound 0.316 µM
[4] = second compound 0.0316 µM, first compound 1 µM
[5] = second compound 0.0316 µM, first compound 3.16 µM
[6] = second compound 0.0316 µM, first compound 10 µM
[7] = second compound 0.1 µM, first compound 0.0316 µM
[8] = second compound 0.1 µM, first compound 0.1 µM
[9] = second compound 0.1 µM, first compound 0.316 µM
[10] = second compound 0.1 µM, first compound 1 µM
[11] = second compound 0.1 µM, first compound 3.16 µM
[12] = second compound 0.1 µM, first compound 10 µM
[13] = second compound 0.316 µM, first compound 0.0316 µM
[14] = second compound 0.316 µM, first compound 0.1 µM
[15] = second compound 0.316 µM, first compound 0.316 µM
[16] = second compound 0.316 µM, first compound 1 µM
[17] = second compound 0.316 µM, first compound 3.16 µM
[18] = second compound 0.316 µM, first compound 10 µM
[19] = second compound 1 µM, first compound 0.0316 µM
[20] = second compound 1 µM, first compound 0.1 µM
[21] = second compound 1 µM, first compound 0.316 µM
[22] = second compound 1 µM, first compound 1 µM
[23] = second compound 1 µM, first compound 3.16 µM
[24] = second compound 1 µM, first compound 10 µM
[25] = second compound 3.16 µM, first compound 0.0316 µM
[26] = second compound 3.16 µM, first compound 0.1 µM
[27] = second compound 3.16 µM, first compound 0.316 µM
[28] = second compound 3.16 µM, first compound 1 µM
[29] = second compound 3.16 µM, first compound 3.16 µM
[30] = second compound 3.16 µM, first compound 10 µM
[31] = second compound 10 µM, first compound 0.0316 µM
[32] = second compound 10 µM, first compound 0.1 µM
[33] = second compound 10 µM, first compound 0.316 µM
[34] = second compound 10 µM, first compound 1 µM
[35] = second compound 10 µM, first compound 3.16 µM
[36] = second compound 10 µM, first compound 10 µM
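Note: spheroids exposed to agents for 7 days before reading.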
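Throughout, for viability, T/C: luminescence signal used as a stand-in for viable cells.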

SMILES: Nc1ccn(C2OC(CO)C(O)C2(F)F)c(=O)n1 (stereo unspecified) + CN1CCN(c2cc(C(=O)Nc3cc4cc(-c5cnn(C)c5)ccc4cn3)ccn2)CC1
- IC50 (second compound 0.0316 µM): < 31.6 nM
- IC50 (second compound 0.1 µM): < 31.6 nM
- IC50 (second compound 0.316 µM): < 31.6 nM
- IC50 (second compound 1 µM): < 31.6 nM
- IC50 (second compound 3.16 µM): < 31.6 nM
- IC50 (second compound 10 µM): < 31.6 nM
- viability, T/C [1]: 7.87%
- viability, T/C [2]: 4.22%
- viability, T/C [3]: 5.68%
- viability, T/C [4]: 2.98%
- viability, T/C [5]: 2.97%
- viability, T/C [6]: 2.28%
- viability, T/C [7]: 9.1%
- viability, T/C [8]: 4.08%
- viability, T/C [9]: 3.35%
- viability, T/C [10]: 3.48%
- viability, T/C [11]: 2.39%
- viability, T/C [12]: 1.85%
- viability, T/C [13]: 11.6%
- viability, T/C [14]: 6.64%
- viability, T/C [15]: 4.53%
- viability, T/C [16]: 3.35%
- viability, T/C [17]: 2.23%
- viability, T/C [18]: 2.18%
- viability, T/C [19]: 1.03%
- viability, T/C [20]: 0.46%
- viability, T/C [21]: 1.22%
- viability, T/C [22]: 0.37%
- viability, T/C [23]: 0.88%
- viability, T/C [24]: 1.48%
- viability, T/C [25]: 0.37%
- viability, T/C [26]: 0.29%
- viability, T/C [27]: 0.92%
- viability, T/C [28]: 0.2%
- viability, T/C [29]: 0.33%
- viability, T/C [30]: 0.29%
- viability, T/C [31]: 0.21%
- viability, T/C [32]: 0.61%
- viability, T/C [33]: 0.42%
- viability, T/C [34]: 0.38%
- viability, T/C [35]: 0.23%
- viability, T/C [36]: 0.54%

SMILES: O=C(c1cc(Cc2n[nH]c(=O)c3ccccc23)ccc1F)N1CCN(C(=O)C2CC2)CC1 + CN1CCN(c2cc(C(=O)Nc3cc4cc(-c5cnn(C)c5)ccc4cn3)ccn2)CC1
- IC50 (second compound 0.0316 µM): > 10000 nM
- IC50 (second compound 0.1 µM): 6680 nM
- IC50 (second compound 0.316 µM): < 31.6 nM
- IC50 (second compound 1 µM): < 31.6 nM
- IC50 (second compound 3.16 µM): < 31.6 nM
- IC50 (second compound 10 µM): < 31.6 nM
- viability, T/C [1]: 87.8%
- viability, T/C [2]: 85.3%
- viability, T/C [3]: 81%
- viability, T/C [4]: 77.7%
- viability, T/C [5]: 65.1%
- viability, T/C [6]: 52.7%
- viability, T/C [7]: 83.9%
- viability, T/C [8]: 89.8%
- viability, T/C [9]: 77%
- viability, T/C [10]: 78.5%
- viability, T/C [11]: 63.3%
- viability, T/C [12]: 42.6%
- viability, T/C [13]: 24%
- viability, T/C [14]: 32.5%
- viability, T/C [15]: 27.3%
- viability, T/C [16]: 27.1%
- viability, T/C [17]: 24.1%
- viability, T/C [18]: 22.7%
- viability, T/C [19]: 1.23%
- viability, T/C [20]: 1.25%
- viability, T/C [21]: 1.1%
- viability, T/C [22]: 1.53%
- viability, T/C [23]: 1.47%
- viability, T/C [24]: 0.93%
- viability, T/C [25]: 0.4%
- viability, T/C [26]: 0.39%
- viability, T/C [27]: 0.42%
- viability, T/C [28]: 0.45%
- viability, T/C [29]: 0.37%
- viability, T/C [30]: 1.27%
- viability, T/C [31]: 0.42%
- viability, T/C [32]: 1.09%
- viability, T/C [33]: 1.28%
- viability, T/C [34]: 0.44%
- viability, T/C [35]: 0.49%
- viability, T/C [36]: 0.38%

SMILES: O=c1[nH]cc(F)c(=O)[nH]1 + CN1CCN(c2cc(C(=O)Nc3cc4cc(-c5cnn(C)c5)ccc4cn3)ccn2)CC1
- IC50 (second compound 0.0316 µM): 7600 nM
- IC50 (second compound 0.1 µM): > 10000 nM
- IC50 (second compound 0.316 µM): < 31.6 nM
- IC50 (second compound 1 µM): < 31.6 nM
- IC50 (second compound 3.16 µM): < 31.6 nM
- IC50 (second compound 10 µM): < 31.6 nM
- viability, T/C [1]: 121%
- viability, T/C [2]: 122%
- viability, T/C [3]: 91.6%
- viability, T/C [4]: 84.5%
- viability, T/C [5]: 60.1%
- viability, T/C [6]: 46.5%
- viability, T/C [7]: 104%
- viability, T/C [8]: 107%
- viability, T/C [9]: 92.2%
- viability, T/C [10]: 94.4%
- viability, T/C [11]: 65.4%
- viability, T/C [12]: 56.1%
- viability, T/C [13]: 25.5%
- viability, T/C [14]: 28.4%
- viability, T/C [15]: 22.2%
- viability, T/C [16]: 29.3%
- viability, T/C [17]: 28.3%
- viability, T/C [18]: 21.5%
- viability, T/C [19]: 1.11%
- viability, T/C [20]: 0.76%
- viability, T/C [21]: 1.57%
- viability, T/C [22]: 1.15%
- viability, T/C [23]: 0.86%
- viability, T/C [24]: 1.02%
- viability, T/C [25]: 0.29%
- viability, T/C [26]: 0.87%
- viability, T/C [27]: 1.83%
- viability, T/C [28]: 0.32%
- viability, T/C [29]: 0.25%
- viability, T/C [30]: 0.31%
- viability, T/C [31]: 0.28%
- viability, T/C [32]: 0.51%
- viability, T/C [33]: 0.49%
- viability, T/C [34]: 0.42%
- viability, T/C [35]: 0.53%
- viability, T/C [36]: 1.86%
